# Reference: patent publication US20050031581A1, “Termite feeding stimulant and method for using same” (priority 2001, published 2005)
# Assays:
# termites [1] = settings: ambient atmosphere; cited from earlier work
# [2] = tested on: Coptotermes formosanus Shiraki; settings: in vivo; cited from earlier work
# termites [3] = settings: extended feeding tests, e.g. greater than 30 days; cited from earlier work
# Mastotermes darviniensis = settings: in vivo; cited from earlier work
# Coptotermes lacteus = settings: in vivo; cited from earlier work
# termites [4] = settings: limited by volatility of the compound; cited from earlier work
# termites [5] = assay: Feeding on bait matrix with chitin synthesis inhibitor added; type: in vivo; settings: added to the bait matrix of the bioassays
# Experimental: Note that Chitin synthesis inhibitors, such as hexaflumuron, were added to the bait matrix described in the bioassays above resulting in less feeding on the bait matrix treated with hexaflumuron compared to its control. […] Accordingly, it is believed that adding sitosterol to such a bait matrix may provide a way to overcome the termites' aversion to hexaflumuron.
# Reticulitermes tibialis [6] = assay: Field test of sitosterol cellulose pellets in underground termite jar traps; type: in vivo; settings: pellet 1% sitosterol and 99% cellulose, 15 jar traps in the field, FIG. 1
# Experimental: Sitosterol was tested in the field as a feeding stimulant for Reticulitermes tibialis. Sitosterol (300 mg) was dissolved in 30 ml of acetone and added to 30 gm of cellulose powder (from Bio-Serv Inc., Frenchtown, N.J.), and the combination was dried overnight. A hydraulic press (providing 15,000 pounds per square inch force) was used to make hard pellets (wherein each pellet was approximately 3 gm, 2.5 cm diameter, 5 mm thickness, having 1% sitosterol and 99% cellulose). Control pellets of cellulose powder alone (3 gm) were made similarly.
# The pellets were tested in underground termite traps made from Nalgene jars (having dimensions of approximately 10 cm diameter, 10 cm height) with 3 mm holes drilled at 3 cm intervals to allow termites to enter each jar. The jar traps were filled with soil (20% moisture). Two pellets were placed on the surface of the soil both within and at the top of each jar trap, one pellet containing cellulose (3 gm) plus sitosterol […] and the other pellet containing only cellulose (3 gm).
# One of the jar traps containing a 1% sitosterol pellet and a cellulose control pellet was placed at the base of a fence post that was previously determined to be infested with termites. The traps were checked once a week for feeding. When termite feeding was apparent, both pellets were removed and weighed to determine the amount of each pellet that had been eaten. […]
# Reticulitermes tibialis [7] = assay: Cellulose TLC plate feeding bioassay; type: in vivo; settings: every dose tested: 30, 100 and 300 ugm per cellulose square; 100 termites, up to 7 days, FIG. 2
# Experimental: Such behavioral feeding bioassays were conducted using the following protocol.
# (§1) Termite workers (100 total) were removed from their storage tubs and placed in a smaller plastic Rubbermaid® tub (having a volume of 414 ml) that contained soil (with a 20% by weight moisture). These termites were allowed to acclimate to their new surroundings for 24 hours before the feeding bioassay began. Solutions of sitosterol in acetone (of 1.0 ugm/ul, […], or 10 ugm/ul, respectively) were applied to three different cellulose squares with a Hamilton syringe (of 100 micro-liters (ul) capacity), wherein the squares were provided on a single thin-layer chromatography (TLC) glass plate. For the three cellulose squares, each single cellulose square (of 13.43 mg of cellulose) was evenly wetted with 30 ul of only one of the solutions. Thus, a dose of one of 30 ugm, 100 ugm or 300 ugm of sitosterol was applied, respectively, to a corresponding one of the cellulose squares. Accordingly, the concentrations on these three cellulose squares were, respectively, 2.23 ugm sitosterol/mg cellulose (equivalently, […] sitosterol to cellulose), 7.45 ugm sitosterol/milligram (mg) cellulose (equivalently, 0.745% sitosterol to cellulose), and 22.34 ugm sitosterol/mg cellulose (equivalently, 2.23% sitosterol to cellulose). Note that a fourth cellulose square was treated with 30 ul of acetone as a control. […]
# Coptotermes formosanus = assay: Cellulose TLC plate feeding bioassay; type: in vivo; settings: 2.23, 7.45 and 22.34 ugm sitosterol/mg cellulose, FIG. 4
# Experimental: as §1
# Reticulitermes tibialis [8] = assay: Paper feeding bioassay; type: in vivo; settings: 0.60, 2.00 and 5.99 ugm sitosterol/mg paper bait substrate; 100 termites, FIG. 3
# Experimental: The termites in the tub were allowed to acclimate to their new surroundings for 24 hours before the present feeding bioassay began. Each of three rectangular bait matrixes (each matrix being approximately 100 mg of bait substrate, the substrate being paper) was divided in two halves with a pencil line, each half having a 50.06 mg bait substrate upon which the termites were to feed. For each bait matrix, one half (the “experimental” half) was provided with a given sitosterol dose, and the other half was provided as a control, and accordingly had no sitosterol applied thereto. In particular, for each bait matrix, exactly one of three solutions of sitosterol in acetone (each solution having one of the concentrations: 1 ugm/ul, […], or 10 ugm/ul) was applied to the “experimental” half of the bait matrix with a Hamilton syringe (of 100 ul capacity), and only acetone was applied to the other (control) half as a control. More precisely, the experimental half of each bait matrix rectangle was evenly wetted with 30 ul of a different one of the solutions of sitosterol, thus applying on the experimental bait matrix half of each bait matrix a dose of only one of 30 ugm, 100 ugm or 300 ugm of sitosterol. The sitosterol concentrations tested were therefore 0.60, 2.00, and 5.99 ugm sitosterol/mg of bait substrate. […]
# termites [9] = assay: Toxic effects of sitosterol to termites; settings: in vivo
# From the text: (§2) Several aspects of sitosterol make it a promising compound for enhancing Coptotermes formosanus, and Reticulitermes tibialis control. […] Termite baits are most frequently placed in the soil where moisture conditions are a factor; i.e., soil having at least 20% moisture, and/or occasionally saturated with water. […] Sitosterol has little toxic risk, and it has been tested in humans as an alternative method to lower plasma cholesterol levels. Sitosterol is an economically rational additive to a termite bait system. For example, the cost of the sitosterol needed to treat one termite bait roll of the size and proportion of paper (e.g., 10 cm by 100 cm) is about one cent to reach the concentration of our highest tested dose (300 ugm).
# [10] = Physical properties of sitosterol; type: physicochemical
# From the text: as §2
smiles,measurement,setting,value
"O=C=O [CO2, carbon dioxide]",CO2 concentration attractive to termites,termites [1],at least 0.2 % by volume
N[C@H](CC(=O)O)C(=O)O [D-aspartic acid],feeding compared with a water control,[2],fed upon more than a water control
same,toxicity to termites,termites [3],has shown toxicity to termites
Oc1ccc(O)cc1 [Hydroquinone],feeding stimulation,Mastotermes darviniensis,stimulated feeding
same,feeding stimulation,Coptotermes lacteus,stimulated feeding
same,duration of phagostimulatory effects,termites [4],one month
N[C@@H](CCC(=O)O)C(=O)O [L-glutamic acid],feeding compared with a water control,[2],fed upon more than a water control
O=C(NC(=O)c1c(F)cccc1F)Nc1cc(Cl)c(OC(F)(F)C(F)F)c(Cl)c1 [hexaflumuron],feeding on treated bait matrix compared to its control,termites [5],less feeding
CC[C@H](CC[C@@H](C)[C@H]1CC[C@H]2[C@@H]3CC=C4C[C@@H](O)CC[C@]4(C)[C@H]3CC[C@]12C)C(C)C [sitosterol],amount of pellet eaten by the termites versus cellulose control pellet,Reticulitermes tibialis [6],more than twice as much
same,feeding on cellulose treated with sitosterol versus control square,Reticulitermes tibialis [7],fed significantly more
same,feeding on cellulose squares having sitosterol versus control square,Coptotermes formosanus,ate substantially more
same,area of bait matrix half consumed versus control side,Reticulitermes tibialis [8],consumed substantially more than the control side
same,toxic effects to termites,termites [9],no toxic effects
same,stability and volatility,[10],"stable, nonvolatile"
same,hydrophobicity,[10]; soil moisture/water,hydrophobic compound which resists being washed off
